The target in series [1] is Mu-type opioid receptor (Cavia porcellus, UniProt P97266). Briefly: Displacement of radiolabeled DAMGO from mu opioid receptor in Hartley guinea pig brain.
Series [2] concerns the target Kappa-type opioid receptor (Cavia porcellus, UniProt P41144). Briefly: Displacement of radiolabeled U69593 from kappa1 opioid receptor in Hartley guinea pig brain.
A short description of series [3]: Plasma half life in rat. Type of series: ADME, organism-based.

In ChEMBL document CHEMBL1138973, “Opiate receptor binding properties of morphine-, dihydromorphine-, and codeine 6-O-sulfate ester congeners” (Bioorg Med Chem Lett, 2006) one finds Ki and half-life data, which are given here for 16 molecules.

Chain of Mu-type opioid receptor (P97266 whole entry): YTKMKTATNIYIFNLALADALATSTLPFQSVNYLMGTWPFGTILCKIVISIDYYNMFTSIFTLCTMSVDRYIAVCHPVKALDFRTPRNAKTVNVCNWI
Chain of Kappa-type opioid receptor (P41144 whole entry): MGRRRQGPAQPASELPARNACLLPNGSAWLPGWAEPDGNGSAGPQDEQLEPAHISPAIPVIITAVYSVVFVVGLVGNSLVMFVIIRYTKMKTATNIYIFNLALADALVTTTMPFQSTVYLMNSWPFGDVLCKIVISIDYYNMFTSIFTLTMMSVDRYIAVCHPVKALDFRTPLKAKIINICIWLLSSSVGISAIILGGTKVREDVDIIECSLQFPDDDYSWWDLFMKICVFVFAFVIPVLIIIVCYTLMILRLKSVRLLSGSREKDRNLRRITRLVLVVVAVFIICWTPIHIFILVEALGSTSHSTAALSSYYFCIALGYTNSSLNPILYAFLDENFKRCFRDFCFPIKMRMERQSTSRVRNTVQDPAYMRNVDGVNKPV

Consider `CN1CC[C@]23c4c5ccc(OS(=O)(=O)O)c4O[C@H]2[C@@H](O)C=C[C@H]3[C@H]1C5`, for which the inhibition constant Ki is 101 nM in series [1] and greater than 10 µM in series [2].

As for `COc1ccc2c3c1O[C@H]1[C@@H](OS(=O)(=O)O)CC[C@H]4[C@@H](C2)N(C)CC[C@@]341`, the Ki in series [1] was 196 nM; in series [2], greater than 10 µM. Take `COc1ccc2c3c1O[C@H]1[C@@H](OS(=O)(=O)O)C=C[C@H]4[C@@H](C2)N(C)CC[C@@]341`: the values for the inhibitory constant (Ki) in series [1] and in series [2] were 38.7 nM and greater than 10 µM, respectively. In series [1], `CN1CC[C@]23c4c5ccc(O)c4O[C@H]2[C@@H](OS(=O)(=O)O)C=C[C@H]3[C@H]1C5` came in with a Ki of 0.9 nM. Consider `CC1(C)SSC(C)(C)[C@@H](NC(=O)[C@@H](N)Cc2ccc(O)cc2)C(=O)NCC(=O)N[C@@H](Cc2ccc(Cl)cc2)C(=O)N[C@H]1C(=O)O`, for which the inhibition constant Ki in series [2] is greater than 10 µM. With `CN1CC[C@]23c4c5ccc(OC(=O)c6ccccc6)c4O[C@H]2[C@@H](OS(=O)(=O)O)C=C[C@H]3[C@H]1C5`, the figures for the Ki in series [1] and in series [2] were 36.9 nM and greater than 10 µM, respectively. `C[N+]1(C)CC[C@]23c4c5ccc(OC(=O)c6ccccc6)c4O[C@H]2[C@@H](OS(=O)(=O)[O-])C=C[C@H]3[C@H]1C5`: the Ki in series [1] is 444 nM; in series [2], greater than 10 µM. On to `CC(C)C(=O)Oc1ccc2c3c1O[C@H]1[C@@H](OS(=O)(=O)O)C=C[C@H]4[C@@H](C2)N(C)CC[C@@]341`, for which, in series [1], the Ki was found to be 19.8 nM. Molecule `CN1CC[C@]23c4c5ccc(OC(=O)C(C)(C)C)c4O[C@H]2[C@@H](OS(=O)(=O)O)C=C[C@H]3[C@H]1C5` came in with a Ki in series [1] of 0.7 nM. With `CN1CC[C@]23c4c5ccc(OC(=O)c6ccccc6)c4O[C@H]2[C@@H](OS(=O)(=O)O)CC[C@H]3[C@H]1C5`, the figures for the Ki in series [1] and in series [2] were 61.8 nM and greater than 10 µM, respectively. Molecule `CC(=O)Oc1ccc2c3c1O[C@H]1[C@@H](OS(=O)(=O)O)C=C[C@H]4[C@@H](C2)N(C)CC[C@@]341` registered a Ki in series [1] of 0.8 nM. This molecule also had a half-life in series [3] greater than 60 min. Consider `C=CCN1CCC23c4c5ccc(O)c4O[C@@H]2/C(=N/NC(=O)c2ccccc2)CCC3(O)C1C5` (some centres undefined), for which the values for the Ki in series [1] and in series [2] were 0.2 nM and 0.0004 µM, respectively. Consider `CC(=O)Oc1ccc2c3c1O[C@H]1[C@@H](OS(=O)(=O)[O-])C=C[C@H]4[C@@H](C2)[N+](C)(C)CC[C@@]341`, for which the Ki is 34.2 nM in series [1] and greater than 10 µM in series [2]. In series [3], this molecule displayed a half-life greater than 60 min. On to `CCC(=O)Oc1ccc2c3c1O[C@H]1[C@@H](OS(=O)(=O)O)C=C[C@H]4[C@@H](C2)N(C)CC[C@@]341`, for which the Ki in series [1] came to 0.6 nM. Turning to `CN1CC[C@]23c4c5ccc(O)c4O[C@H]2[C@@H](OS(=O)(=O)O)CC[C@H]3[C@H]1C5`, the Ki is 1.5 nM in series [1] and 3.13 µM in series [2].

On to `CC(=O)Oc1ccc2c3c1O[C@H]1[C@@H](OS(=O)(=O)O)CC[C@H]4[C@@H](C2)N(C)CC[C@@]341`, for which the Ki was 13.7 nM in series [1] and greater than 10 µM in series [2]. In series [3], the half-life is greater than 60 min.
